The results in this text go back to US11000033B2, “Ketone or oxime compound, and herbicide” (NISSAN CHEMICAL CORPORATION, priority 2014, dated 2021).

Common to all, as to format: in vivo
Common to all, as to conditions: 320 g/ha, 3 weeks after application

One series concerns Digitaria ciliaris. The experiment in a line: Test Example 5: herbicidal effect by foliage application, plastic box (symbol F). The source says:
(§1) Herbicidal Effect Test by Foliage Application
(§2) Sterilized diluvial soil was placed in a plastic box having a length of 21 cm, a width of 13 cm, and a depth of 7 cm. Each of the seeds of Digitaria ciliaris, Setaria viridis, Echinochloa crus-galli var. crus-galli, Avena fatua, Alopecurus myosuroides, Lolium multiflorum Lam., Apera spica-venti, Abutilon theophrasti, Amaranthus retroflexus, Chenopodium album, Stellaria media, Galium spurium, Veronica persica, corn, soybean, rice plant, wheat, beet, and rapeseed was sowed in a spot-like manner and was covered with the soil of a thickness of about 1.5 cm. Thereafter, the plants were grown in the greenhouse of 25° C. to 30° C. After the plants were grown for 14 days, the emulsion agent of the compound of the present invention prepared in accordance with Formulation Example 2 was diluted with water so as to be a predetermined herbicide amount and the diluted emulsion agent was uniformly applied to a foliage part with a small-size spray. 3 weeks later from the herbicide application, the effect to each plant was investigated in accordance with the criteria of Test Example 1.

The next series has as its system soybean. The series can be described thus: Test Example 5: effect on crop by foliage application, plastic box (symbol d).
Source text: as §1
(§3) Sterilized diluvial soil was placed in a plastic box having a length of 21 cm, a width of 13 cm, and a depth of 7 cm. Each of the seeds of Digitaria ciliaris, Setaria viridis, Echinochloa crus-galli var. crus-galli, Avena fatua, Alopecurus myosuroides, Lolium multiflorum Lam., Apera spica-venti, Abutilon theophrasti, Amaranthus retroflexus, Chenopodium album, Stellaria media, Galium spurium, Veronica persica, corn, soybean, rice plant, wheat, beet, and rapeseed was sowed in a spot-like manner and was covered with the soil of a thickness of about 1.5 cm. Thereafter, the plants were grown in the greenhouse of 25° C. to 30° C.

Another series deals with Stellaria media. The series can be described thus: Test Example 5: herbicidal effect by foliage application, plastic box (symbol P).
Source text: as §1, §2

The next series relates to Galium spurium. The experiment in a line: Test Example 5: herbicidal effect by foliage application, plastic box (symbol Q).
Source text: as §1, §2

Another series relates to Abutilon theophrasti. The experiment in a line: Test Example 5: herbicidal effect by foliage application, plastic box (symbol M).
Source text: as §1, §2

The next series deals with Avena fatua. The experiment in a line: Test Example 5: herbicidal effect by foliage application, plastic box (symbol I).
Source text: as §1, §2

The next series has as its system Setaria viridis. The experiment in a line: Test Example 5: herbicidal effect by foliage application, plastic box (symbol G).
Source text: as §1, §2

The subject of another series is Amaranthus retroflexus. The series can be described thus: Test Example 5: herbicidal effect by foliage application, plastic box (symbol N).
Source text: as §1, §2

A further series has as its system Alopecurus myosuroides. The series can be described thus: Test Example 5: herbicidal effect by foliage application, plastic box (symbol J).
Source text: as §1, §2

A further series concerns Chenopodium album. The series can be described thus: Test Example 5: herbicidal effect by foliage application, plastic box (symbol O).
Source text: as §1, §2

Another series deals with beet. The series can be described thus: Test Example 5: effect on crop by foliage application, plastic box (symbol f).
Source text: as §1, §3

The test system of the next series is rapeseed. The experiment in a line: Test Example 5: effect on crop by foliage application, plastic box (symbol g).
Source text: as §1, §3

In a further series the test system is rice plant. The series can be described thus: Test Example 5: effect on crop by foliage application, plastic box (symbol b).
Source text: as §1, §3

The next series relates to wheat. The experiment in a line: Test Example 5: effect on crop by foliage application, plastic box (symbol e).
Source text: as §1, §3

The test system of the next series is Veronica persica. The series can be described thus: Test Example 5: herbicidal effect by foliage application, plastic box (symbol R).
Source text: as §1, §2

For a further series, the system named is Lolium multiflorum Lam. The series can be described thus: Test Example 5: herbicidal effect by foliage application, plastic box (symbol K).
Source text: as §1, §2

The test system of a further series is corn. The series can be described thus: Test Example 5: effect on crop by foliage application, plastic box (symbol c).
Source text: as §1, §3

Series [1] relates to Echinochloa crus-galli var. crus-galli. The experiment in a line: Test Example 5: herbicidal effect by foliage application, plastic box (symbol H).
Source text: as §1, §2

In the next series the test system is Apera spica-venti. The series can be described thus: Test Example 5: herbicidal effect by foliage application, plastic box (symbol L).
Source text: as §1, §2

The structures appear in SMILES notation.

Take `CON=C(C)CC1CC(OC)=C(c2c(C)cc(-c3ccc(SC)cc3)cc2C)C1=O` (mixture of isomers) [6-021]: the “F: Digitaria ciliaris, herbicidal effect grade” value in the series on Digitaria ciliaris was 0 (Herbicidal ratio of 5% or lower (almost no effect)). Further, in the series on soybean, the “d: soybean, effect on crop grade” value is 0 (Herbicidal ratio of 5% or lower (almost no effect)). For the same compound, the “P: Stellaria media, herbicidal effect grade” value in the series with Stellaria media is given as 0 (Herbicidal ratio of 5% or lower (almost no effect)). Further, the “Q: Galium spurium, herbicidal effect grade” value in the series on Galium spurium is reported as 0 (Herbicidal ratio of 5% or lower (almost no effect)). Also, the “M: Abutilon theophrasti, herbicidal effect grade” value in the series on Abutilon theophrasti is reported as 0 (Herbicidal ratio of 5% or lower (almost no effect)). Also, the “I: Avena fatua, herbicidal effect grade” value in the series on Avena fatua is 1 (Herbicidal ratio of 5% or higher and lower than 20%). Besides, the “G: Setaria viridis, herbicidal effect grade” value in the series with Setaria viridis is 3 (Herbicidal ratio of 40% or higher and lower than 70%). In addition, the “N: Amaranthus retroflexus, herbicidal effect grade” value in the series on Amaranthus retroflexus was 0 (Herbicidal ratio of 5% or lower (almost no effect)). In the series with Alopecurus myosuroides, the “J: Alopecurus myosuroides, herbicidal effect grade” value was 3 (Herbicidal ratio of 40% or higher and lower than 70%). For the same compound, the “O: Chenopodium album, herbicidal effect grade” value in the series with Chenopodium album is 0 (Herbicidal ratio of 5% or lower (almost no effect)). The “f: beet, effect on crop grade” value in the series on beet is recorded as 0 (Herbicidal ratio of 5% or lower (almost no effect)). For the same compound, the “g: rapeseed, effect on crop grade” value in the series on rapeseed is 3 (Herbicidal ratio of 40% or higher and lower than 70%). Besides, in the series on rice plant, the “b: directly sowed rice plant, effect on crop grade” value is 0 (Herbicidal ratio of 5% or lower (almost no effect)). In the series with wheat, the “e: wheat, effect on crop grade” value is given as 0 (Herbicidal ratio of 5% or lower (almost no effect)). For the same compound, in the series on Veronica persica, the “R: Veronica persica, herbicidal effect grade” value is on record as 0 (Herbicidal ratio of 5% or lower (almost no effect)). Moreover, in the series on Lolium multiflorum Lam., the “K: Lolium multiflorum Lam., herbicidal effect grade” value is recorded as 5 (Herbicidal ratio of 90% or more (almost completely withered)). The “c: corn, effect on crop grade” value in the series with corn is recorded as 0 (Herbicidal ratio of 5% or lower (almost no effect)).

For `CON=C(C)CC1CC(OC(=O)N(c2ccccc2)C(C)C)=C(c2c(C)cc(C)cc2C)C1=O` (stereo not drawn) [1-127], in the series on Digitaria ciliaris, the “F: Digitaria ciliaris, herbicidal effect (criteria 0-5)” value was 0 (Herbicidal ratio of 5% or lower (almost no effect)). For the same compound, the “d: soybean, effect on crop (criteria 0-5)” value in the series with soybean was 0 (Herbicidal ratio of 5% or lower (almost no effect)). Also, the “P: Stellaria media, herbicidal effect (criteria 0-5)” value with Stellaria media is 0 (Herbicidal ratio of 5% or lower (almost no effect)). Further, the “Q: Galium spurium, herbicidal effect (criteria 0-5)” value in the series on Galium spurium is 0 (Herbicidal ratio of 5% or lower (almost no effect)). The “M: Abutilon theophrasti, herbicidal effect (criteria 0-5)” value with Abutilon theophrasti was 0 (Herbicidal ratio of 5% or lower (almost no effect)). In addition, the “I: Avena fatua, herbicidal effect (criteria 0-5)” value with Avena fatua is 0 (Herbicidal ratio of 5% or lower (almost no effect)). In the series on Setaria viridis, the “G: Setaria viridis, herbicidal effect (criteria 0-5)” value is on record as 0 (Herbicidal ratio of 5% or lower (almost no effect)). For the same compound, the “N: Amaranthus retroflexus, herbicidal effect (criteria 0-5)” value in the series on Amaranthus retroflexus is on record as 0 (Herbicidal ratio of 5% or lower (almost no effect)). Moreover, in the series with Alopecurus myosuroides, the “J: Alopecurus myosuroides, herbicidal effect (criteria 0-5)” value was 1 (Herbicidal ratio of 5% or higher and lower than 20%). Also, in the series on Chenopodium album, the “O: Chenopodium album, herbicidal effect (criteria 0-5)” value is recorded as 0 (Herbicidal ratio of 5% or lower (almost no effect)). For the same compound, in the series with beet, the “f: beet, effect on crop (criteria 0-5)” value is reported as 0 (Herbicidal ratio of 5% or lower (almost no effect)). In the series with rapeseed, the “g: rapeseed, effect on crop (criteria 0-5)” value was 0 (Herbicidal ratio of 5% or lower (almost no effect)). Besides, the “b: directly sowed rice plant, effect on crop (criteria 0-5)” value in the series with rice plant is 0 (Herbicidal ratio of 5% or lower (almost no effect)). Moreover, the “H: Echinochloa crus-galli var. crus-galli, herbicidal effect (criteria 0-5)” value in [1] was 0 (Herbicidal ratio of 5% or lower (almost no effect)). For the same compound, the “L: Apera spica-venti, herbicidal effect (criteria 0-5)” value in the series with Apera spica-venti was 0 (Herbicidal ratio of 5% or lower (almost no effect)). In the series on wheat, the “e: wheat, effect on crop (criteria 0-5)” value was 0 (Herbicidal ratio of 5% or lower (almost no effect)). In addition, the “R: Veronica persica, herbicidal effect (criteria 0-5)” value in the series on Veronica persica is recorded as 0 (Herbicidal ratio of 5% or lower (almost no effect)). Further, the “K: Lolium multiflorum Lam., herbicidal effect (criteria 0-5)” value with Lolium multiflorum Lam. is 1 (Herbicidal ratio of 5% or higher and lower than 20%). The “c: corn, effect on crop (criteria 0-5)” value with corn is listed as 0 (Herbicidal ratio of 5% or lower (almost no effect)).
